Where two headings read alike, the source gives them in different places.
How the values were obtained:
[1] = target: T1, Aryl hydrocarbon receptor (Rattus norvegicus, UniProt P41738); conditions: for EC10, linear transformed / EC10, linear / logEC10: Bioassay AhR, dosing range all; for EC10, linear: linear model fit; for logEC10: log-logistic model fit; for log(1/EC10) AhR: input of the ToxPi score, values up to 1.00
T1 sequence (P41738 10-853): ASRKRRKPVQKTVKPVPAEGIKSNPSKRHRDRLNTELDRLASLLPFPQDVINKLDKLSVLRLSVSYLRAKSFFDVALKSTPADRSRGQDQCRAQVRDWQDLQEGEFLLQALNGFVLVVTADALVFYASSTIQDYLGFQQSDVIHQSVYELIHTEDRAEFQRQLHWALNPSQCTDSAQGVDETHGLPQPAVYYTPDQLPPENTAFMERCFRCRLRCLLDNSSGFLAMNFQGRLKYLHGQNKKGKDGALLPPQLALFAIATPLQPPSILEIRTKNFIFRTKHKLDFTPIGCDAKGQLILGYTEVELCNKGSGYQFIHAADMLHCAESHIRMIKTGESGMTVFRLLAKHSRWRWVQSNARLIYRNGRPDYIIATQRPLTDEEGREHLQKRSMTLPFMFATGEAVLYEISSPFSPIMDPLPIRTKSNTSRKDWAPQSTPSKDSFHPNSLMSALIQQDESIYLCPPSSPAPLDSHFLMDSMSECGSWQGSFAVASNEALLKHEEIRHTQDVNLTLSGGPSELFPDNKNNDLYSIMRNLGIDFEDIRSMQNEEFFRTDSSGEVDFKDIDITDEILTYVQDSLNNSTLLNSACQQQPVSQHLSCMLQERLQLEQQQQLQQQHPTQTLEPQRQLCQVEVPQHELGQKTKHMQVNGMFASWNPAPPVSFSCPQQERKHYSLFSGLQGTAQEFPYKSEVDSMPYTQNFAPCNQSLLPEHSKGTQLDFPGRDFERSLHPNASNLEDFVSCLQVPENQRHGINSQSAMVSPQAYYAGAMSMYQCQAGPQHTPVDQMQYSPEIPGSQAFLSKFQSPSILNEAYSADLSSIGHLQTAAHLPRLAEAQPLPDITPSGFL
Source text: All bioassay media components and the ERα-UAS-bla GripTite and PPARγ-UAS-bla cells were obtained from Thermo Fisher Scientific (Waltham, MA, USA). AREc32 reporter gene cells based on MCF7 were provided by C. Roland Wolf (Cancer Research UK); AhR CALUX cells (H4L7.5c2 derived from H4IIe) were provided by Michael Denison (UC Davis, USA); and SH-SY5Y cells were purchased from Sigma-Aldrich.
(§1) Cell culture conditions and bioassay protocols including response detection are provided in Text S2.1–2.4 and Table S3. − Cell viability was determined from cell confluency using an IncuCyte S3 Live-Cell Analysis System (Sartorius AG, Essen, Germany) before and after exposure, except for SH-SY5Y cells (live–dead staining with Nuclear Green LcS1 and propidium iodide, Abcam, UK). For metabolic activation experiments, cell viability was assessed using the ToxBLAzer DualScreen Kit (Thermo Fisher Scientific) to capture the remaining toxicity in ERα-UAS-bla GripTite after treatment with the aCYP catalyst (details in Text S2.4).
For ARE, the concentration that triggered an induction ratio of 1.5 (ECIR1.5) was used as the benchmark value, as detailed in Text S2.5. IC10 values also served as a threshold for data analysis in all assays; only concentrations below IC10 were considered when deriving EC10 or ECIR1.5. […]
S2: Cell culture and bioassays
S2.1: Cell Culturing Conditions
All suppliers and sources are given in detail in SI-Excel S3. The bioassay media for the different assays were prepared as follows: Assay medium for ER alpha-UAS-bla GripTite (ERα) and PPAR gamma-UAS-bla 293H (PPARγ) was prepared with 98% Opti-MEM, supplemented with 2% charcoal-stripped FBS, and 100 U/mL penicillin-streptomycin. MitoOxTox and AhR assay medium was comprised of 90% DMEM with GlutaMAX, supplemented with 10% FBS, and 100 U/mL penicillin-streptomycin. Neurotoxicity assay medium consisted of the neurobasal […]
(1 picture or pasted object on this page, not shown here) […]
medium, supplemented with 2% B-27 Supplement and 2 mM GlutaMAX Supplement. SH - SY5Y cells were differentiated with 10 µM all-trans retinoic acid prior to the assay.
(§2) S2.2: Cell Seeding and Incubation. For all bioassays, cell suspensions in the respective assay medium were dispensed into each well of 384-well plates using a MultiFlo Dispenser (Biotek, (now Agilent), Winooski, VT, U.S.). After seeding, the plates were incubated at 37° C and 5% CO₂ for […]. The final cell densities and plate types were as follows: Black poly-D-lysine coated 384-well plates (Product No. 354663, Corning Inc., NYC, U.S.) were used for PPARγ:
(§3) 6500 cells/well, ERα: 5000 cells/well. White 384-well plates with a clear bottom (Product No.
781098, Greiner, Kremsmünster, Austria) were utilized for the MitoOxTox assay: 2650

MCF7 (ARE/MMP) = conditions: for Toxic ratio (TR) TRARE / Toxic ratio (TR) TRMMP: against baseline cytotoxicity; for Toxic ratio (TR) TRARE: ARE readout; for Toxic ratio (TR) TRMMP: MMP readout; for IC10, MCF7, ARE: MCF7, ARE readout; for IC10, MCF7, MMP: MCF7, MMP readout
Description: as §1
For ARE, the concentration that triggered an induction ratio of 1.5 (ECIR1.5) was used as the benchmark value, as detailed in Text S2.5. IC10 values also served as a threshold for data analysis in all assays; only concentrations below IC10 were considered when deriving EC10 or ECIR1.5.
We measured the cytotoxicity of BPA and its alternatives in HEK293H (PPARγ), HEK293T (ERα), H4IIe (AhR CALUX), MCF7 (ARE/MMP), and differentiated SH-SY5Y cells (Table S6). […]
as §2, with “coated 384-well plates (Product No. 354663, Corning Inc., NYC, U.S.) were used for PPARγ:” left out
as §3
NYC, U.S.) for AhR: 3250 cells/well. Black Collagen I coated plates were used (Product No.
S2.3: Chemical Dosing and Assay Analysis Procedures. The dosing procedure and high-throughput assay workflow have been described in detail before. 9 The dosing concentrations […]
Stock solutions were then either added directly to the respective cell culture medium or evaporated under nitrogen, followed by replenishment with fresh medium. The final solvent content in each well was kept below 1% for methanol, 0% for acetonitrile.
Dosing plates were prepared as 11 -step serial dilutions using a Hamilton Microlab Star robotic system (Hamilton, Bonaduz, Switzerland), and chemicals were dosed in duplicates by transferring 10 μL twice from the dosing plates to the cell plates . After quantifying cell confluency as described in S2. 4., the exposed cells were incubated at 37° C and 5% CO₂ for an additional 24 h. All chemicals were tested in all assays with at least three independent […]
S2.4: Cell Viability Measurement s and bioanalytical protocols . The confluency as a measure of cell viability was determined with an IncuCyte S3 Live -Cell Analysis System (Sartorius AG, Essen, Germany). With this method the confluency of cells in a microscopy image are normalized to control wells without cells and compared before and after 24 hours of exposure.
This method has been described previously 13. […]

[2] = Bioassay ARE, cytotoxicity, dosing range all
[3] = Bioassay ARE, cytotoxicity, dosing range all, linear model fit
[4] = Bioassay ARE, cytotoxicity, dosing range all, log-logistic model fit
[5] = MMP bioassay cytotoxicity, dosing range all
[6] = MMP bioassay cytotoxicity, dosing range all, linear model
[7] = MMP bioassay cytotoxicity, dosing range all, log-logistic model

Row | Compound | EC10, linear transformed [1] | EC10, linear [1] | logEC10 [1] | log(1/EC10) AhR [1] | IC10, linear transformed (MCF7 (ARE/MMP); [2]) | IC10, linear (MCF7 (ARE/MMP); [3]) | logIC10 (MCF7 (ARE/MMP); [4]) | IC10, linear transformed (MCF7 (ARE/MMP); [5]) | IC10, linear (MCF7 (ARE/MMP); [6]) | logIC10 (MCF7 (ARE/MMP); [7]) | Toxic ratio (TR) TRARE (MCF7 (ARE/MMP)) | Toxic ratio (TR) TRMMP (MCF7 (ARE/MMP)) | IC10, MCF7, ARE (MCF7 (ARE/MMP); cytotoxicity) [µM] | IC10, MCF7, MMP (MCF7 (ARE/MMP); cytotoxicity) [µM] | logIC10 (MCF7 (ARE/MMP); human, 24 h) | EC10, AhR (M) [1] | SR-ScoreAhR ([1]; SR-Score, sigma k=1, x=5) | Specificity ratio (SRbaseline) SRAhR ([1]; against baseline cytotoxicity) | EC10, AhR ([1]; effect) [µM]
1 | O=C(OCc1ccccc1)c1ccc(O)cc1 [BzPB, Benzyl 4-hydroxybenzoate] | 1.73E-04 | no effect | no effect | 0.80 | 8.95E-05 | 1.23E-04 | -4.05 | 2.97E-04 | 1.94E-04 | -3.53 | 0.38 | 0.11 | 89.5 | 297 |  |  |  |  | 
2 | CC(C)Oc1ccc(S(=O)(=O)c2ccc(O)cc2)cc1 [D8, 4-((4-Isopropoxyphenyl)sulfonyl)phenol] |  | no effect | no effect | 0.75 |  |  |  |  |  |  | 0.06 | 0.06 |  |  | -2.67 |  |  |  | 
3 | Cc1ccc(S(=O)(=O)NC(=O)Nc2cccc(OS(=O)(=O)c3ccc(C)cc3)c2)cc1 [Pergafast, N-(p-toluenesulfonyl)-N'-(3-(p-toluenesulfonyloxy)phenyl)urea] | 2.45E-05 | 2.29E-05 | -4.61 |  |  | 4.06E-05 | no cytotoxicity |  | no cytotoxicity | no cytotoxicity |  |  |  |  |  | 2.29 × 10^–5 M | 0.73 | 6.02 | 22.9
4 | CC(C)(c1cc(Cl)c(O)c(Cl)c1)c1cc(Cl)c(O)c(Cl)c1 [TCBPA, 2,2',6,6'-Tetrachlorobisphenol A] | 7.24E-05 | 1.69E-04 | no effect | 0.84 | 7.84E-05 | 8.16E-05 | -4.11 | 9.30E-05 | 7.25E-05 | -4.03 |  |  | 78.4 | 93 |  |  |  |  | 
5 | Cc1cc(Cc2cc(C)c(O)c(C)c2)cc(C)c1O [TMBPF, Bis(3,5-dimethyl-4-hydroxyphenyl)methane] | 1.03E-04 | no effect | no effect |  |  | no cytotoxicity | no cytotoxicity | 1.42E-05 | no cytotoxicity | -4.85 |  | 0.95 |  | 14.2 |  |  |  |  | 
6 | CC1(C)[C@H](O)C(C)(C)[C@H]1O [Trans TMCD] | 8.49E-03 | no effect | -2.00 |  |  | no cytotoxicity | no cytotoxicity |  | no cytotoxicity | no cytotoxicity |  |  |  |  |  |  |  |  | 
